# Measured values: patent US8030443B2, “Squamous cell carcinoma antigen-derived peptide binding to HLA-A24 molecule” (Kurume University, priority 2005, dated 2011)
# System: PBMCs from HLA-A24^+ cancer patients and HDs
# Experiment: Induction of peptide-specific CTLs from PBMCs, IFN-γ ELISA against peptide-pulsed C1R-A24 cells
# Format: cell-based, human
# Conditions: for Total: healthy donors with induction of peptide-specific CTLs / donors tested: 8 HLA-A24^+ healthy donors; for Total: healthy donors with induction of peptide-specific CTLs / donors tested / Total: cancer patients with induction of peptide-specific CTLs / patients tested: positive when more than 50 pg/ml IFN-γ with p<0.05; for Total: cancer patients with induction of peptide-specific CTLs / patients tested: 20 HLA-A24^+ cancer patients; for IFN-γ Production: HIV peptide background subtracted, only significant values shown, — otherwise
# Description: PBMCs from HLA-A24^+ cancer patients and HDs were used for the CTL induction assay. For the induction of peptide-specific CTLs, PBMCs (1.5×10^5 cells/well) were incubated with 10 μg/ml of each peptide in four different wells of a 96-well microculture plate (Nunc) in 200 μl of culture medium containing interleukin (IL)-2, as reported previously (Non-Patent Literature 18). Every 3 or 4 days, half the culture medium was removed and replaced with new medium containing the corresponding peptide (20 μg/ml) and 100 U/ml IL-2. On the 14th day, the cells from each well were independently harvested, washed, separated into four wells, and tested for their ability to produce interferon (IFN)-γ in response to C1R-A24 cells pulsed with a corresponding peptide or a negative control HIV peptide in the duplicate assays. C1R-A24 is an HLA-A2402-expressing subline of C1R lymphoma (Dr. M. Takiguchi, Kumamoto University, Japan). After an 18-h incubation of C1RA-24, the supernatant was collected, and the level of IFN-γ was determined by ELISA.
# Whether or not the SCCA107, SCCA112, SCCA215, and SCCA286 peptides had the potential to induce peptide-specific CTLs from the PBMCs of 20 HLA-A24^+ cancer patients and 8 HLA-A24^+ healthy donors was investigated. The group of twenty cancer patients consisted of 4 esophageal SCC patients, 4 cervical SCC patients, 4 lung cancer patients (2 adenocarcinomas, one small cell carcinoma, and one squamous cell carcinoma), 4 gastric adenocarcinoma patients, and 4 colon adenocarcinoma patients. The assay was carried out in quadruplicate. The cultured cells in one well were separated into 4 wells, and two wells were used for the SCCA peptide-pulsed C1R-A24 cells, and the other two were used for the HIV peptide-pulsed C1R-A24 cells.
Sequence,Total: healthy donors with induction of peptide-specific CTLs / donors tested,Total: cancer patients with induction of peptide-specific CTLs / patients tested,Total: cancer patients with induction of peptide-specific CTLs / patients tested (listed as SCCA107),IFN-γ Production (PBMCs of HLA-A24^+ healthy donor 7),"IFN-γ Production (PBMCs of HLA-A24^+ patient 2, Esophagus)","IFN-γ Production (PBMCs of HLA-A24^+ patient 6, Cervix of uterus)","IFN-γ Production (PBMCs of HLA-A24^+ patient 13, Stomach)",Total: cancer patients with induction of peptide-specific CTLs / patients tested (listed as SCCA286),"IFN-γ Production (PBMCs of HLA-A24^+ patient 4, Esophagus)","IFN-γ Production (PBMCs of HLA-A24^+ patient 7, Cervix of uterus)"
"LFGEKTYLFL (SCCA 107-116 peptide) [SCCA-derived peptide, position 107-116]",1/8,3/20,3 of 20,259 pg/mL,84 pg/mL,105 pg/mL,500 pg/mL,,,
"RFKVEESYDL (SCCA 286-295 peptide) [SCCA-derived peptide, position 286-295]",0/8,3/20,,,,,,3 of 20,97 pg/mL,169 pg/mL
